Calls of active or inactive are those of the source. No cut-off for these calls is given here.
Key:
P2X purinoceptor 7 [1] = biological target: T1, P2X purinoceptor 7 (Homo sapiens, UniProt Q99572); test: Antagonist activity at human P2X7 receptor
T1 sequence (Q99572 whole entry): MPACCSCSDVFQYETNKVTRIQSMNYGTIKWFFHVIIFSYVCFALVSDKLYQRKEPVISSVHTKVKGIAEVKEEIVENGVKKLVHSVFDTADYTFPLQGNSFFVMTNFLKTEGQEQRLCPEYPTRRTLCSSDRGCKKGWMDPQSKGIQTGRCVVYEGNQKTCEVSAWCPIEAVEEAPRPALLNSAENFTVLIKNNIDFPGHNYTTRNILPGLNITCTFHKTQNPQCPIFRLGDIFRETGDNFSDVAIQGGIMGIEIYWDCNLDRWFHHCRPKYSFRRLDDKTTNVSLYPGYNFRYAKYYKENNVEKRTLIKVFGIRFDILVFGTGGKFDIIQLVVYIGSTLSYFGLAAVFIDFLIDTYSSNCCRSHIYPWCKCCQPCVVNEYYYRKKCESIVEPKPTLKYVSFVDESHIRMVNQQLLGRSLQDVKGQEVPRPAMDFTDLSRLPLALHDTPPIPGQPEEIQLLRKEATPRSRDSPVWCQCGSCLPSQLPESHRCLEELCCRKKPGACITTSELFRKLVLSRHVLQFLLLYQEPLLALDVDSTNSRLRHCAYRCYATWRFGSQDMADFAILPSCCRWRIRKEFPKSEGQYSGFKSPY

[2] = biological target: T2, P2X purinoceptor 7 (Homo sapiens) (UniProt Q99572); test: Antagonist activity at human P2X7 receptor expressed in HEK293 cells assessed as inhibition of ATP-induced receptor pore formation at 1 uM by propidium iodide dye uptake based fluorescence analysis; type: cell-based; settings: filed as antagonist
T2 sequence (whole entry): T1 sequence (Q99572 whole entry)

[3] = biological target: T3, P2X purinoceptor 7 (Mus musculus) (UniProt Q9Z1M0); test: Antagonist activity at mouse P2X7 receptor expressed in HEK293 cells assessed as inhibition of ATP-induced receptor pore formation at 1 uM by propidium iodide dye uptake based fluorescence analysis; type: cell-based; settings: filed as antagonist
T3 sequence (whole entry): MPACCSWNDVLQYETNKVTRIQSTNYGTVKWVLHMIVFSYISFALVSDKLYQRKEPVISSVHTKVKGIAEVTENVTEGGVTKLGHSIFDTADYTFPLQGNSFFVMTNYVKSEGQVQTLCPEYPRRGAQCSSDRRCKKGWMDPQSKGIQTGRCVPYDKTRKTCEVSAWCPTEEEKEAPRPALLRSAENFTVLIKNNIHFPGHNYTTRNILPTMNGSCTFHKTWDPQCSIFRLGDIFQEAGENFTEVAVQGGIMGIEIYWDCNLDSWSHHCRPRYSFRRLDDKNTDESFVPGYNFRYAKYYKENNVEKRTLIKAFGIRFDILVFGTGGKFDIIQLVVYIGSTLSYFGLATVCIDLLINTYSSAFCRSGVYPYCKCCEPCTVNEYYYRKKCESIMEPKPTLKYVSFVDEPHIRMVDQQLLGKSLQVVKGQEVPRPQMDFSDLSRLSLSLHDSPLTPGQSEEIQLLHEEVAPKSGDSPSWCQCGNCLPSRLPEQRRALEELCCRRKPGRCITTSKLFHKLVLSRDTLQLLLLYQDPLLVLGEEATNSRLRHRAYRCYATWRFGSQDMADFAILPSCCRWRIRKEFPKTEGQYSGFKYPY

[4] = biological target: T2, P2X purinoceptor 7 (Homo sapiens); test: Antagonist activity at human P2X7 receptor expressed in HEK293 cells assessed as inhibition of ATP-induced receptor pore formation at 200 nM by propidium iodide dye uptake based fluorescence analysis; type: cell-based
[5] = biological target: T3, P2X purinoceptor 7 (Mus musculus); test: Antagonist activity at mouse P2X7 receptor expressed in HEK293 cells assessed as inhibition of ATP-induced receptor pore formation at 200 nM by propidium iodide dye uptake based fluorescence analysis; type: cell-based; settings: filed as antagonist
P2X purinoceptor 7 [6] = biological target: T1, P2X purinoceptor 7; test: Antagonist activity at human P2X7 receptor expressed in HEK293 cells assessed as inhibition of ATP-induced receptor pore formation by propidium iodide dye uptake based fluorescence analysis; type: cell-based
P2X purinoceptor 7 [7] = biological target: T4, P2X purinoceptor 7 (Mus musculus, UniProt Q9Z1M0); test: Antagonist activity at mouse P2X7 receptor expressed in HEK293 cells assessed as inhibition of ATP-induced receptor pore formation by propidium iodide dye uptake based fluorescence analysis; type: cell-based
T4 sequence (Q9Z1M0 whole entry): T3 sequence (whole entry)

[8] = Intrinsic clearance in human liver microsomes; type: ADME, Microsome; settings: read-out: CLH
[9] = Half life in human liver microsomes; type: ADME, Microsome
[10] = Intrinsic clearance in mouse liver microsomes; type: ADME, Microsome; settings: read-out: CLH
[11] = Half life in mouse liver microsomes; type: ADME, Microsome
HEK293 [12] = test: Cytotoxicity against human HEK293 cells transfected with human P2X7 receptor assessed as effect on cell viability at 1 to 4 uM incubated for 2 hrs by CCK8 assay; type: toxicity, cell-based; settings: hek293, 2 h, dose 1-4 µM
HEK293 [13] = test: Cytotoxicity against human HEK293 cells transfected with mouse P2X7 receptor assessed as effect on cell viability at 1 to 4 uM incubated for 2 hrs by CCK8 assay; type: toxicity, cell-based; settings: hek293, 2 h, dose 1-4 µM
P2X purinoceptor 7 [14] = biological target: T1, P2X purinoceptor 7; test: Antagonist activity at P2X7 receptor in human THP-1 cells assessed as inhibition of ATP-induced IL-1beta secretion pretreated with LPS for 3 hrs followed by incubation with compound for 40 mins followed by treatment with ATP for 1 hr by ELISA; type: cell-based
THP-1 = test: Cytotoxicity against human THP-1 cells assessed as effect on cell viability at 1 to 4 uM incubated for 2 hrs by CCK8 assay; type: toxicity, cell-based; settings: thp-1, 2 h, dose 1-4 µM
[15] = AUC(0 to t) in BALB/c mouse at 10 mg/kg, iv measured for 24 hrs by LC-MS/MS analysis; type: ADME, organism-based; set-up: time 24 hrs, dose 10 mg/kg, route iv; settings: in vivo
[16] = AUC(0 to t) in BALB/c mouse at 10 mg/kg, po measured for 24 hrs by LC-MS/MS analysis; type: ADME, organism-based; set-up: time 24 hrs, dose 10 mg/kg, route po; settings: in vivo
[17] = Clearance in BALB/c mouse at 10 mg/kg, iv measured for 24 hrs by LC-MS/MS analysis; type: ADME, organism-based; settings: in vivo
[18] = Clearance in BALB/c mouse at 10 mg/kg, po measured for 24 hrs by LC-MS/MS analysis; type: ADME, organism-based; settings: in vivo
[19] = Cmax in BALB/c mouse at 10 mg/kg, iv measured for 24 hrs by LC-MS/MS analysis; type: ADME, organism-based; set-up: time 24 hrs, dose 10 mg/kg, route iv; settings: in vivo
[20] = Cmax in BALB/c mouse at 10 mg/kg, po measured for 24 hrs by LC-MS/MS analysis; type: ADME, organism-based; set-up: time 24 hrs, dose 10 mg/kg, route po; settings: in vivo
[21] = Half life in BALB/c mouse at 10 mg/kg, iv measured for 24 hrs by LC-MS/MS analysis; type: ADME, organism-based; settings: in vivo
[22] = Half life in BALB/c mouse at 10 mg/kg, po measured for 24 hrs by LC-MS/MS analysis; type: ADME, organism-based; settings: in vivo
[23] = Tmax in BALB/c mouse at 10 mg/kg, iv measured for 24 hrs by LC-MS/MS analysis; type: ADME, organism-based; settings: in vivo
[24] = Tmax in BALB/c mouse at 10 mg/kg, po measured for 24 hrs by LC-MS/MS analysis; type: ADME, organism-based; settings: in vivo
[25] = Oral bioavailability in BALB/c mouse at 10 mg/kg measured for 24 hrs by LC-MS/MS analysis; type: ADME, organism-based; settings: in vivo
[26] = AUC(0 to t) in BALB/c mouse at 10 mg/kg, ip measured for 24 hrs by LC-MS/MS analysis; type: ADME, organism-based; set-up: dose 10 mg/kg, time 24 hrs, route ip; settings: in vivo
[27] = Clearance in BALB/c mouse at 10 mg/kg, ip measured for 24 hrs by LC-MS/MS analysis; type: ADME, organism-based; settings: in vivo
[28] = Cmax in BALB/c mouse at 10 mg/kg, ip measured for 24 hrs by LC-MS/MS analysis; type: ADME, organism-based; set-up: dose 10 mg/kg, time 24 hrs, route ip; settings: in vivo
[29] = Half life in BALB/c mouse at 10 mg/kg, ip measured for 24 hrs by LC-MS/MS analysis; type: ADME, organism-based; settings: in vivo
[30] = Tmax in BALB/c mouse at 10 mg/kg, ip measured for 24 hrs by LC-MS/MS analysis; type: ADME, organism-based; settings: in vivo
Mus musculus [31] = test: Reno-protective activity against LPS-induced acute kidney injury C57BL/6J mouse model assessed as decrease in serum […] level at 10 mg/kg, ip administered twice at 30 mins prior to LPS challenge and 8 hrs post-LPS challenge and measured at 16 hrs post-LPS challenge; type: functional, organism-based; settings: time 16.5 hrs
Mus musculus [32] = test: Reno-protective activity against LPS-induced acute kidney injury C57BL/6J mouse model assessed as decrease in BUN level at 10 mg/kg, ip administered twice at 30 mins prior to LPS challenge and 8 hrs post-LPS challenge and measured at 16 hrs post-LPS challenge; type: functional, organism-based; settings: time 16.5 hrs
P2X purinoceptor 7 [33] = biological target: T4, P2X purinoceptor 7; test: Antagonist activity at mouse P2X7 receptor

| IC50 (P2X purinoceptor 7 [1]) [nM] | inhibition [2] [%] | inhibition [3] [%] | inhibition [5] [%] | IC50 (P2X purinoceptor 7 [6]) [nM] | IC50 (P2X purinoceptor 7 [7]) [nM] | CLint scaled [8] [mL/min/kg] | half-life [9] [min] | CLint scaled [10] [mL/min/kg] | half-life [11] [min] | IC50 (P2X purinoceptor 7 [14]) [nM] | AUC(0-t) at 24 h [15] [ng·h/mL] | AUC(0-t) at 24 h [16] [ng·h/mL] | clearance [17] [mL/min/kg] | CL/F [18] [mL/min/kg] | Cmax [19] [ng/mL] | Cmax [20] [ng/mL] | SMILES | Activity (HEK293 [12]) | Activity (HEK293 [13]) | Activity (THP-1) | also measured |
| --- | --- | --- | --- | --- | --- | --- | --- | --- | --- | --- | --- | --- | --- | --- | --- | --- | --- | --- | --- | --- | --- |
| 103 | – | – | – | – | – | – | – | – | – | – | – | – | – | – | – | – | CC1=C(C(c2ccc(Cl)cc2)n2cc(COCc3ccco3)nn2)C(=O)c2ccccc2C1=O (stereo not given) | – | – | – | – |
| – | 100 | 114 | 114 | 166 | 12.2 | < 12 | > 120 | < 12 | > 120 | 289 | 40900 | 7140 | 3.67 | 26.3 | 3410 | 1010 | CS(=O)(=O)c1ccc(-c2ncc(C(=O)NCc3cn(-c4cc(Br)ccn4)nn3)s2)cc1 | Non-Toxic | Non-Toxic | Non-Toxic | inhibition ([4]; filed as antagonist): 56.9%; half-life [21]: 472 min; half-life [22]: 160 min; Tmax [23]: 83.4 min; Tmax [24]: 2 h; bioavailability [25]: 17.5%; AUC(0-t) at 24 h [26]: 24400 ng·h/mL; CL/F [27]: 6.83 mL/min/kg; Cmax [28]: 3660 ng/mL; half-life [29]: 490 min; Tmax [30]: 4 h; Activity (Mus musculus [31]): Active; Activity (Mus musculus [32]): Active |
| 200 | – | – | – | – | – | – | – | – | – | – | – | – | – | – | – | – | O=C(NCc1ccc(Cl)cc1Cl)C1CCC(=O)N1c1ccoc1 (stereo not given) | – | – | – | – |
| – | 68 | 99.5 | 105 | 147 | 36.2 | < 12 | > 120 | < 12 | > 120 | 358 | 5080 | 4390 | 33.2 | 40.8 | 3040 | 776 | CS(=O)(=O)c1ccc(-c2nc(C(=O)NCc3cn(-c4cc(Cl)ccn4)nn3)cs2)cc1 | Non-Toxic | Non-Toxic | Non-Toxic | inhibition ([4]; filed as antagonist): 42.1%; half-life [21]: 118 min; half-life [22]: 137 min; Tmax [23]: 4.8 min; Tmax [24]: 2 h; bioavailability [25]: 86.4%; AUC(0-t) at 24 h [26]: 9930 ng·h/mL; CL/F [27]: 16.9 mL/min/kg; Cmax [28]: 3650 ng/mL; half-life [29]: 236 min; Tmax [30]: 0.38 h; Activity (Mus musculus [31]): Active; Activity (Mus musculus [32]): Active |
| 1100 | – | – | – | – | – | – | – | – | – | – | – | – | – | – | – | – | O=C1C=C(n2cc(CCCl)nn2)C(=O)c2c(O)cccc21 | – | – | – | IC50 (P2X purinoceptor 7 [33]): 1500 nM |
| – | 53.6 | 100 | 101 | 297 | 26.9 | < 12 | > 120 | < 12 | > 120 | 635 | 77900 | 29100 | 2 | 5.83 | 25800 | 6500 | CS(=O)(=O)c1ccc(-c2ncc(C(=O)NCc3cn(-c4cc(Cl)ccn4)nn3)s2)cc1 | Non-Toxic | Non-Toxic | Non-Toxic | inhibition [4]: 38.2%; half-life [21]: 296 min; half-life [22]: 126 min; Tmax [23]: 4.8 min; Tmax [24]: 2 h; bioavailability [25]: 37.3%; AUC(0-t) at 24 h [26]: 12000 ng·h/mL; CL/F [27]: 13.5 mL/min/kg; Cmax [28]: 1470 ng/mL; half-life [29]: 239 min; Tmax [30]: 4.67 h; Activity (Mus musculus [31]): Active; Activity (Mus musculus [32]): Active |

Reference: ChEMBL document CHEMBL5360655, “Design, Synthesis, and Biological Evaluation of Novel P2X7 Receptor Antagonists for the Treatment of Septic Acute Kidney Injury” (J Med Chem, 2023)
